Holding throughout (assay type): functional
For assay [1], the target named is T1, Metabotropic glutamate receptor 5 (Rattus norvegicus, UniProt P31424). Description: Antagonistic activity against Metabotropic glutamate receptor 5 was determined.
Assay [2] concerns the target Metabotropic glutamate receptor 2 (Rattus norvegicus, UniProt P31421). As to the kind of experiment: Antagonistic activity against Metabotropic glutamate receptor 2 was determined.
The target of assay [3] is Metabotropic glutamate receptor 6 (Rattus norvegicus, UniProt P35349). As to the kind of experiment: Antagonistic activity against Metabotropic glutamate receptor 6 was determined at 1 mM; NE = No significant effect observed.
Assay [4] addresses T2, Metabotropic glutamate receptor 1 (Rattus norvegicus, UniProt P23385). As to the kind of experiment: Antagonistic activity against Metabotropic glutamate receptor 1 was determined.
The target of assay [5] is T2, Metabotropic glutamate receptor 1. Description: Antagonistic activity against Metabotropic glutamate receptor 1 was determined at 1 mM; NE = No significant effect observed.
For assay [6], the target named is T1, Metabotropic glutamate receptor 5. As to the kind of experiment: Antagonistic activity against Metabotropic glutamate receptor 5 was determined at 1 mM; NE = No significant effect observed.

The source of these data is ChEMBL document CHEMBL1129924, “Synthesis and biological activity of cyclic analogues of MPPG and MCPG as metabotropic glutamate receptor antagonists” (Bioorg Med Chem Lett, 1997).

By IC50 is commonly meant the point on the concentration scale where inhibition reaches its midpoint. The low end stands for inhibition by little substance, the high end for a need for much substance.

Metabotropic glutamate receptor 6, sequence (P35349 whole entry): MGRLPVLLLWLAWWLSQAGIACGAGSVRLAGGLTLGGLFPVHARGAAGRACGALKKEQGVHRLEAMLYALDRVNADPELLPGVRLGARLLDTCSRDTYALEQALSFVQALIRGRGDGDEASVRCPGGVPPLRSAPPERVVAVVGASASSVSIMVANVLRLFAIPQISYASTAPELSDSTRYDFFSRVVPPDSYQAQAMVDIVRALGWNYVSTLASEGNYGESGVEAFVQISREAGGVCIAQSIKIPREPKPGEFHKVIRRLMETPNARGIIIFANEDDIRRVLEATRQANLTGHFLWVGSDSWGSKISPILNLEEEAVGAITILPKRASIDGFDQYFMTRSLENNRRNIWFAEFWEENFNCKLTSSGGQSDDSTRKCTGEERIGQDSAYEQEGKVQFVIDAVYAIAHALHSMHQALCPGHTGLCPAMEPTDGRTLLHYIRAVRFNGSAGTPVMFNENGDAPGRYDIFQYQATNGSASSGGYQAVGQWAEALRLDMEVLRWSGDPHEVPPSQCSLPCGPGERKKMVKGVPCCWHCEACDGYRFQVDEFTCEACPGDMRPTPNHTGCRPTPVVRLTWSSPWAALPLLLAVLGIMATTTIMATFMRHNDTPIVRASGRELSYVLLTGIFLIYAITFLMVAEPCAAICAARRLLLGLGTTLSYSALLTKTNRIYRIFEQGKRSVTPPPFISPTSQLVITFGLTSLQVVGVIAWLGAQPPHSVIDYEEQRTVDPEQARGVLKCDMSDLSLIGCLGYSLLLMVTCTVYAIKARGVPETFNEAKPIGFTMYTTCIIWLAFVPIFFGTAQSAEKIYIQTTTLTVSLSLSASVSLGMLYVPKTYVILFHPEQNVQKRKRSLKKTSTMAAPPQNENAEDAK
T1 sequence (P31424 whole entry): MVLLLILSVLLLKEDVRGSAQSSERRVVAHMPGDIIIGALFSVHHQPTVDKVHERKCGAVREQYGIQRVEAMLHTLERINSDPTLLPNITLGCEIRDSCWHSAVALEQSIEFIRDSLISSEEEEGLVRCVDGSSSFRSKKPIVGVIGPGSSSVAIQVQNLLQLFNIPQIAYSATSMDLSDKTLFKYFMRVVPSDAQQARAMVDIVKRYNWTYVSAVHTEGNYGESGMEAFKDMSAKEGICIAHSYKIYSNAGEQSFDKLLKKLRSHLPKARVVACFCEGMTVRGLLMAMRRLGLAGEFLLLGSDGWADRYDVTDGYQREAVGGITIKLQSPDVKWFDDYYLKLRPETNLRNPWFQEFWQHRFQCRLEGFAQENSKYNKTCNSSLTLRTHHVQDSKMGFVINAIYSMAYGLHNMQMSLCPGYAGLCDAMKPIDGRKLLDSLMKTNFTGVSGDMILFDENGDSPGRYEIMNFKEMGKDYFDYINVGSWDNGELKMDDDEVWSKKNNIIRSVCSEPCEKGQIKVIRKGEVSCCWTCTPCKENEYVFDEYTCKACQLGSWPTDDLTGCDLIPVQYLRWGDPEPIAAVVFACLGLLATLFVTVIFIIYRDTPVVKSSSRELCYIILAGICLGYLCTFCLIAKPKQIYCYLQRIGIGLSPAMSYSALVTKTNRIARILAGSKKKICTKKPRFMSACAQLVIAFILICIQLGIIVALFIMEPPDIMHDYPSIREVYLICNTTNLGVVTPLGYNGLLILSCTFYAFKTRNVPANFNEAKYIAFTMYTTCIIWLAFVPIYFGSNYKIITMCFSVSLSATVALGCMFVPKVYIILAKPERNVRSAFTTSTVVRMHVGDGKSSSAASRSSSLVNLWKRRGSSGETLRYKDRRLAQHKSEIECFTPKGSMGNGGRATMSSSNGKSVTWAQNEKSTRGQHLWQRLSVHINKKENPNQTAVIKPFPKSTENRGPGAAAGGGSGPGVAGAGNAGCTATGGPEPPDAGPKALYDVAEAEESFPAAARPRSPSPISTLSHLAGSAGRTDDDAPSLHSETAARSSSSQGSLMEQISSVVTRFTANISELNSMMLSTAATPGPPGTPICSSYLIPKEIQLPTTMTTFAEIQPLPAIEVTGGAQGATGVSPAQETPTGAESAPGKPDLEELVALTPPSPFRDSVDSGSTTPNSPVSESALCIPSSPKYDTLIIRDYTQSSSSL
Metabotropic glutamate receptor 2, sequence (P31421 whole entry): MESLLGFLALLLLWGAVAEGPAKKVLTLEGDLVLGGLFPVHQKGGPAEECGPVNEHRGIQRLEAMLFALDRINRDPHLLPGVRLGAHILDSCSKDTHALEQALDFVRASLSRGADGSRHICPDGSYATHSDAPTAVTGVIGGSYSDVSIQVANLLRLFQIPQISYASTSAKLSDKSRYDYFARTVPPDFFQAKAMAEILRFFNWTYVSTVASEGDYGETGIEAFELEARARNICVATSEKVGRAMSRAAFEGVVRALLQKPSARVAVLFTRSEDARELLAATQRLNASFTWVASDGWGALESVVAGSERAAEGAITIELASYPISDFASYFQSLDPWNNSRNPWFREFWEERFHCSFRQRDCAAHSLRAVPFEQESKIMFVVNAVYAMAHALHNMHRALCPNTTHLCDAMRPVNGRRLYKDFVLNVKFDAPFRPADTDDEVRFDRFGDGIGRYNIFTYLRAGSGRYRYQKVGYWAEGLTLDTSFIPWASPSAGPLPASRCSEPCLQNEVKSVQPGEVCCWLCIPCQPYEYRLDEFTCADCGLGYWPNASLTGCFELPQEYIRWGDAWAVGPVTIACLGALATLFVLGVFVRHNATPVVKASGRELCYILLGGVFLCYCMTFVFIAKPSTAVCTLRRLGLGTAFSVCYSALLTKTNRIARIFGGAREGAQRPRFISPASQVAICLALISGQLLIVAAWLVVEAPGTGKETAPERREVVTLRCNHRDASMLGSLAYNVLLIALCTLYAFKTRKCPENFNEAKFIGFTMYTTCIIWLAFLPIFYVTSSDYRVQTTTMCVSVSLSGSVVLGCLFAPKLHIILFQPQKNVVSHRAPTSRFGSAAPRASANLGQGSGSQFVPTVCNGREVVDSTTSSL
T2 sequence (P23385 whole entry): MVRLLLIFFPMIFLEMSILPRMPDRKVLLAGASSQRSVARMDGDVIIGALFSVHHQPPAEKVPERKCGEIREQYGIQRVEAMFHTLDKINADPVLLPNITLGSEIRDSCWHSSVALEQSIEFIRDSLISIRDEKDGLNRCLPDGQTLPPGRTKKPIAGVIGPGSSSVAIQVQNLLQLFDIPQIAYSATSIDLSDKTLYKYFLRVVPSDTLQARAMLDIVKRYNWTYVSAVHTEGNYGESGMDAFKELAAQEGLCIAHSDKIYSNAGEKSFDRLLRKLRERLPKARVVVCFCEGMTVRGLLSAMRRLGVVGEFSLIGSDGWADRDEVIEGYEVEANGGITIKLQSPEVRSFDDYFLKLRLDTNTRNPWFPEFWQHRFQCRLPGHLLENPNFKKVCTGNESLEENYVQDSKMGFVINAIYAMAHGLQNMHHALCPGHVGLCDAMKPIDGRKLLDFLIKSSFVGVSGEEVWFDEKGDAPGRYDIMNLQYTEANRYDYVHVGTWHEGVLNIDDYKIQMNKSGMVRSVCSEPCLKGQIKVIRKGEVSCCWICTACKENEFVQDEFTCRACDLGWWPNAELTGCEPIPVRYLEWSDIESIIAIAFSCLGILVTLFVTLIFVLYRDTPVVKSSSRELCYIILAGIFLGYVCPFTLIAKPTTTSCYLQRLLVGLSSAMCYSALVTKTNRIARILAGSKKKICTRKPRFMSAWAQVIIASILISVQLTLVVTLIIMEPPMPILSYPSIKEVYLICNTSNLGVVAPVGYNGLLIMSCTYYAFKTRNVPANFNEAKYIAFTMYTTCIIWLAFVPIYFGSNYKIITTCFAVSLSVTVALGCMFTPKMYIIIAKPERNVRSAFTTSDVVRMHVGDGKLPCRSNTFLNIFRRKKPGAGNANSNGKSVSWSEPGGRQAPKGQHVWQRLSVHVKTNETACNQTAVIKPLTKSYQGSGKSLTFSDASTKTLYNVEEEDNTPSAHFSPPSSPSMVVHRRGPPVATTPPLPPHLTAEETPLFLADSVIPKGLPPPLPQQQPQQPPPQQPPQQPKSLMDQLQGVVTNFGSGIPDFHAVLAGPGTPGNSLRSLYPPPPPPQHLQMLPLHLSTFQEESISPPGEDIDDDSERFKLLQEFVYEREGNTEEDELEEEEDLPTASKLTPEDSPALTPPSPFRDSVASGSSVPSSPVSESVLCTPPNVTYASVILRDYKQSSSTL

Take `CC1(C)CC(N)(C(=O)O)c2ccc(C(=O)O)cc2O1` (stereo not drawn): the IC50 was 355 µM in assay [1], 43 µM in assay [2], “No effect” in assay [3] and 93 µM in assay [4].
Consider `NC1(C(=O)O)CCc2cc(P(=O)(O)O)ccc21` (stereo not drawn), for which the IC50 is 30 µM in assay [2], “No effect” in assay [3], “No effect” in assay [5] and “No effect” in assay [6].
